# Experimental data taken from patent US20140205660A1, “Abscisic acid against cancer” (priority 2013, published 2014).
# Like-named read-outs stand apart in the source and are kept apart here.
# Assays:
# [1] = 50 mg/ml, Sigma-Aldrich material; cited from earlier work
# leaf discs of V. Faba = settings: cited from earlier work
# [2] = can rearrange to PA; cited from earlier work
# [3] = system: C1498 transplanted tumor with myeloid leukemia; experiment: Survival of C57BL/6J mice with C1498 transplanted tumor (Livingston); assay type: in vivo; settings: for survival: oral
# Source text: For determination of cancer survival rate, she used C57BL/6J mice and C1498 transplanted tumor with myeloid leukemia purchased from the Jackson Laboratory in Maine. This type of cancer was lethal in mice in 10-15 days. ABA furnished by Hoffmann-Laroche was suspended in saline and administered as suspension. Groups of 10 mice were used for treatment for a total of 7 days.
# [4] = system: C1498 transplanted tumor with myeloid leukemia; settings: groups of 10 mice, 7 days treatment, cited from earlier work
# cancer = settings: 62 human cases, digestive ABA plus six vaccines, inconclusive cases not considered; cited from earlier work
# Lemna gibba G1 = settings: cited from earlier work
# stomata opening = settings: 10 mcM ABA extracellular, cited from earlier work
# cancer cell lines = settings: HELA, DU 145, HCT115, K562, C1498, HL-60, SMMC-7721, Tca8113; cited from earlier work
# [5] = system: HELA, DU145, HCT116 AND K562; settings: cited from earlier work
# DU-145 (prostate cancer) = settings: DU-145 tumor cells; cited from earlier work
# [6] = system: HL-60 (promyelocytic leukemia); settings: HL-60 tumor cells; cited from earlier work
# TCA8113 cells = settings: cited from earlier work
# nuclear protein Ki67 = settings: proliferating tumor cells; cited from earlier work
compound,measurement,setting,value
CC1=CC(=O)CC(C)(C)C1(O)/C=C/C(C)=C\C(=O)O (racemic) [(+/−)-Abscisic acid],appearance of solution in ethanol,[1],clear to slightly hazy
"CC1=CC(=O)CC(C)(C)C1(O)/C=C/C(C)=C\C(=O)O (racemic) [racemic ABA, reference compound]",half-life,leaf discs of V. Faba,30 to 32 h
"CC(C=CC1(O)C(C)=CC(=O)CC1(C)CO)=CC(=O)O (centres unmarked) [Metabolite C, 6′-hydroxy methyl ABA]",stability,[2],extremely unstable
"[S-(Z,E)]-5-(1-Hydroxy-2,6,6-trimethyl-4-oxo-2-cyclohexen-1-yl)-3-methyl-2,4-pentadienoic acid [ABA]",survivors,"[3]; group II, 1 mg/kg",90%
same,survival,[3]; 10 mg/kg,60%
same,survival,[3]; 100 mg/kg,90%
same,rate of survival at the end of 14 days,[4]; ABA 1 mg/kg i.p.,9 survivors
same,rate of survival at the end of 14 days,[4]; ABA 10 mg/kg i.p.,10 survivors
same,rate of survival at the end of 14 days,[4]; ABA 10 mg/kg oral,6 survivors
same,rate of survival at the end of 14 days,[4]; ABA 100 mg/kg oral,9 survivors
same,success rate,cancer,around 82%
same,potential increase in average,Lemna gibba G1; 10-100 mcm ABA,85 mV
same,EPD after ABA treatment,"Lemna gibba G1; after 15 hours ABA treatment, from −109 mV",−194 mV
same,inhibition of stomata opening,stomata opening; pH 6.15,98%
same,inhibition of stomata opening,stomata opening; pH 8.0,57%
same,half-life,leaf discs of V. Faba,6 to 8 h
same,effect against cancer cell lines,cancer cell lines,severe effect
same,effects in four human cancer cell lines,[5],"caused a tumor growth reduction, reduced cell proliferation rate, changed cell cycle progression, and produced induction of apoptosis"
same,changes in morphology of cancer cells,DU-145 (prostate cancer),growth in poor condition and nuclear pycnosis
same,changes in morphology of cancer cells,[6],absence of tumor cell nuclear membrane microvillus and presentation of typical apoptosis characteristics
same,Involucrin protein expression,TCA8113 cells; differentiation of TCA8113 affected by ABA,expressed
same,retinoic acid receptor beta (RARBETA) expression,TCA8113 cells; under treatment with ABA,expressed and not silenced
same,nuclear protein Ki67 expression,nuclear protein Ki67,reduced
